± gives the expanded uncertainty stated by the source.
Columns and labels:
[1] = Crystal; DTA
[2] = Molar enthalpy of transition or fusion; details: Crystal; DSC

Normal melting temperature [1]: 312.00 ± 4 °C | Molar enthalpy of transition or fusion [2]: 3.47 ± 0.112 kcal/mol
SMILES: CC(=O)c1ccc(C)c2ccccc12 [1-(4-methyl-1-naphthyl) ethanone]

Source: the NIST ThermoML archive (doi:10.1016/j.fluid.2009.10.015)
